Reference: patent US20070208067A1, “Tablet Formulations and Processes” (Wyeth, priority 2006, published 2007)

Experiments:
[1] = Dynamic vapor sorption (hygroscopicity) of the two crystal forms; assay type: physicochemical; details: for DVS weight gain: 0–90% RH; for Hygroscopicity (DVS): result in words
Description: Dynamic Vapor Sorption (Allentown, Pa.) was used to measure the hygroscopicity of the anhydrate and monohydrate of the invention (see FIGS. 6 and 7). The step conditions were three hours each at 0%, 30%, 52.5%, 75% and 90% RH, two full cycles.

[2] = Stability studies of the two crystal forms (XRPD, TGA, HPLC); assay type: physicochemical; details: for Chemical stability (HPLC) / Crystal form transformation (XRPD and TGA): 40° C./75% RH (monohydrate also 40° C. without humidity control)
Description: […] At room temperature, humidity was maintained at 0% RH. Humidity was not controlled for the higher temperatures.
The samples were analyzed by XRPD and TGA.
Non-micronized samples of monohydrate and anhydrate were stored at 40° C./75% RH for three months. The monohydrate was also stored at 40° C. without humidity control. During the three months, the samples were checked after two weeks, one month, two months, and three months.

## C=Cc1cc(O)cc2nc(-c3ccc(O)c(F)c3)oc12 [Anhydrate, 2-(3-fluoro-4-hydroxyphenyl)-7-vinyl-1,3-benzoxazol-5-ol]
[1]
  DVS weight gain: 0.2% gain (0–90% RH)
  Hygroscopicity (DVS): largely non-hygroscopic
[2]; micronized, 25° C./60% RH, three months
  Crystal form transformation (XRPD): did not transform to the monohydrate
[2]; micronized, 40° C./75% RH, one month
  Crystal form transformation (XRPD): partially transform to the monohydrate
[2]; non-micronized, three months
  Chemical stability (HPLC): chemically stable
  Crystal form transformation (XRPD and TGA): did not transform
[2]; non-micronized, 40° C./75% RH, separate study
  Crystal form transformation (XRPD): did not show any obvious transformation

## C=Cc1cc(O)cc2nc(-c3ccc(O)c(F)c3)oc12 [Monohydrate, 2-(3-fluoro-4-hydroxyphenyl)-7-vinyl-1,3-benzoxazol-5-ol]
[1]
  DVS weight gain: 0.1% gain (0–90% RH)
  Hygroscopicity (DVS): largely non-hygroscopic
[2]; 56° C., humidity not controlled, one week
  Solid-state stability (XRPD and TGA): no obvious dehydration
[2]; 70° C., humidity not controlled, 1 day
  Solid-state stability (XRPD and TGA): no obvious hydration
[2]; 70° C., humidity not controlled, 4 days
  Solid-state stability (XRPD and TGA): partially dehydrated
[2]; 70° C., humidity not controlled, 7 days
  Solid-state stability (XRPD and TGA): mostly dehydrated
[2]; 70° C., one hour
  Solid-state stability (XRPD): stable
[2]; 90° C., one half hour
  Solid-state stability (XRPD): partially dehydrated
[2]; 90° C., one hour
  Solid-state stability (XRPD): completely dehydrated
[2]; non-micronized, three months
  Chemical stability (HPLC): chemically stable
  Crystal form transformation (XRPD and TGA): did not transform
[2]; room temperature, 0% RH, one week
  Solid-state stability (XRPD and TGA): no obvious dehydration
